Key:
[1] = type: physicochemical
Experimental: In order to investigate applicability of the compound (o) obtained in Example 7-c to a wet process, a solubility test of the compound in various solvents was conducted. In addition, a solubility test of pentacene was also conducted as reference.
Specifically, 20 mg of a sample was weighed and it was visually judged whether it dissolves in 10 g of a solvent at room temperature (0.2% by weight).

For `c1ccc2cc3cc4cc5ccccc5cc4cc3cc2c1` [Pentacene, pentacene, reference compound], the “Solubility in Chloroform” value [1] was “No”, the “Solubility in Cyclohexane” value [1] was “No” and the “Solubility in Hexane” value [1] was “No”. The “Solubility in THF” value [1] was “No”, the “Solubility in Toluene” value [1] was “No” and the “Solubility in o-Dichlorobenzene” value [1] was “No”.
In the case of `FC(F)(F)c1c2ccc(C#Cc3ccccc3)cc2c(C(F)(F)F)c2ccc(C#Cc3ccccc3)cc12` [Compound (b1), 2,6-bis(phenylethynyl)-9,10-bis(trifluoromethyl)anthracene], the melting point is reported as 215 to 215.5 °C.
For `FC(F)(F)c1c2cc3ccccc3cc2c(C(F)(F)F)c2cc3ccccc3cc12` [Compound (o)], the “Solubility in Chloroform” value [1] was “Yes”, the “Solubility in Cyclohexane” value [1] was “Yes” and the “Solubility in Hexane” value [1] was “Yes”. The “Solubility in THF” value [1] was “Yes”, the “Solubility in Toluene” value [1] was “Yes” and the “Solubility in o-Dichlorobenzene” value [1] was “Yes”.
`COc1ccc(C#Cc2ccc3c(C(F)(F)F)c4ccccc4c(C(F)(F)F)c3c2)cc1` [Compound (a1), 2-[(4-methoxyphenyl)ethynyl]-9,10-bis(trifluoromethyl)anthracene] showed a melting point of 123.5 to 124.1 °C.

— patent US9087996B2, “Fluorine-containing aromatic compound and production method thereof” (Asahi Glass Company, Limited, priority 2012, dated 2015)
